One compound from publication PMC8047011, “Enantiomers of 2-methylglutamate and 2-methylglutamine selectively impact mouse brain metabolism and behavior” (Scientific Reports, 2021) can be followed below.

This assay has as its target T1, human glutaminase GLS1 (Homo sapiens, UniProt O94925).
T1 sequence (O94925 55-669): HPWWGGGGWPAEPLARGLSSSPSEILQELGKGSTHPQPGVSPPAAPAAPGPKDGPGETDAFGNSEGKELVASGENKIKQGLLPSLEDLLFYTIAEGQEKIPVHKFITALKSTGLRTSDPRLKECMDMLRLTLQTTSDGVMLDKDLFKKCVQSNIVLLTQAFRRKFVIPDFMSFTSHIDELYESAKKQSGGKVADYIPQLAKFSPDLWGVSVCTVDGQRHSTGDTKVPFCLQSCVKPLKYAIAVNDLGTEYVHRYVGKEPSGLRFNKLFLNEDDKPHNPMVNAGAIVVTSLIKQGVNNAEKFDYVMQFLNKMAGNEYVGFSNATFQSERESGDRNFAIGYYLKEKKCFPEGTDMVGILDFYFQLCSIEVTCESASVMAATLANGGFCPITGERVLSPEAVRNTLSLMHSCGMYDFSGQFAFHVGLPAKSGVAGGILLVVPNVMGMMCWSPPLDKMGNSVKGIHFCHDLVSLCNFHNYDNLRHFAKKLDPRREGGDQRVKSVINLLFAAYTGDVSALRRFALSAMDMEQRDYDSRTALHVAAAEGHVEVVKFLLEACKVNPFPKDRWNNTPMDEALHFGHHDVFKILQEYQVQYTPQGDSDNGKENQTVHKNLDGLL
The experiment in a line: Catalysis of 2MeGln hydrolysis by GLS1 glutaminase. The format is biochemical. As to the method:
The procedure was adapted from an existing protocol. To a reaction mixture in a 1.5 mL microcentrifuge tube containing 10 mM rac-2MeGln or L-Gln-^13C2 in 100 mM phosphate pH 7.4 buffer made in 20% atom ^18O water, recombinant GLS1 (final concentration: 5 ng/mL) was added. The tubes were incubated in a preheated thermomixer at 37 °C and periodically shaken at 600 rpm (30 s on, 30 s off). 5 μL aliquots were collected in triplicate every 5 min and immediately diluted with 195 μL of cold 60% ACN containing 10 μM Glu-d5 and Gln-d5 as internal standards in a 96 well plate. After collecting all samples, the plate was shaken at 1000 rpm for 5 min at room temperature, and then stored at − 80 °C. Before analysis the plate was thawed and 10 μL aliquots of the extracted reaction mixtures were diluted with 190 μL of 90% acetonitrile.
The quantification of the newly formed 2MeGlu in the presence of the preexisting trace amounts was performed in the following way. Peak area ratio of Glu-^13C2 to Glu-^13C2^18O was calculated in all samples containing Glu-^13C2. The mean ratio value was then applied to calculate the hypothetical peak area of the newly formed 2MeGlu based on the directly measured 2MeGlu-^18O peak area. The ratio of the newly formed 2MeGlu peak area and the total 2MeGlu peak area was applied to calculate the concentration of the newly formed 2MeGlu from the total 2MeGlu concentration determined directly using the calibration curve.

As for `CC(N)(CCC(N)=O)C(=O)O` (racemic) [rac-2MeGln, rac-2-methylglutamine], the “Substrate for GLS1” value was “at least one enantiomer of 2MeGln is a substrate for human GLS1, albeit relatively slow”. The “Apparent GLS1 reaction rate, fold lower compared to Gln” value (10 mM substrate) is given as “approximately 35 fold”. Besides, for the setting “10 mM substrate, 5 ng/mL enzyme, phosphate pH 7.4”, the “Apparent reaction rate of GLS1 hydrolysis” value amounted to 1.9 µM/min.
